The results in this text go back to US7776888B2, “Herbicides” (Syngenta Crop Protection, Inc., priority 2002, dated 2010).

Holding throughout (assay type): in vivo
Assay [1] has as its system Abutilon. In words: Pre-emergence herbicidal action (Example B1). As to conditions: 250 gr/ha, sprayed immediately after sowing, evaluated after 3 weeks; scale of ten ratings 10=total damage, 0=no action. From the text:
(§1) Monocotyledonous and dicotyledonous test plants are sown in standard soil in plastic pots. Immediately after sowing, the test compounds, in the form of an aqueous suspension (prepared from a 25% wettable powder (Example F3, b) according to WO 97/34485) or in the form of an emulsion (prepared from a 25% emulsifiable concentrate (Example F1, c)), are applied by spraying in a concentration corresponding to 125 g or 250 g of active ingredient/ha (500 liters of water/ha). The test plants are then grown in a greenhouse under optimum conditions. After a test duration of 3 weeks, the test is evaluated in accordance with a scale of ten ratings (10=total damage, 0=no action). Ratings of from 10 to 6 (especially from 10 to 8) indicate good to very good herbicidal action.

Assay [2] has as its system Amaranthus. In words: Pre-emergence herbicidal action (Example B1). To be noted: 250 gr/ha, sprayed immediately after sowing, evaluated after 3 weeks; scale of ten ratings 10=total damage, 0=no action.
From the text: as §1

In assay [3] the test system is Chenopodium. In words: Pre-emergence herbicidal action (Example B1). As to conditions: 250 gr/ha, sprayed immediately after sowing, evaluated after 3 weeks; scale of ten ratings 10=total damage, 0=no action.
From the text: as §1

The test system of assay [4] is Echinochloa. The experiment in a line: Pre-emergence herbicidal action (Example B1). As to conditions: 250 gr/ha, sprayed immediately after sowing, evaluated after 3 weeks; scale of ten ratings 10=total damage, 0=no action.
From the text: as §1

Assay [5] has as its system Kochia. The experiment in a line: Pre-emergence herbicidal action (Example B1). As to conditions: 250 gr/ha, sprayed immediately after sowing, evaluated after 3 weeks; scale of ten ratings 10=total damage, 0=no action.
From the text: as §1

The test system of assay [6] is Panicum. In words: Pre-emergence herbicidal action (Example B1). As to conditions: 250 gr/ha, sprayed immediately after sowing, evaluated after 3 weeks; scale of ten ratings 10=total damage, 0=no action.
From the text: as §1

Assay [7] deals with Amaranthus. The experiment in a line: Post-emergence herbicidal action (Example B2). As to conditions: 250 gr/ha, sprayed at 4- to 6-leaf stage, evaluated after about 18 days; scale 10=total damage, 0=no action. The procedure:
(§2) In a greenhouse, monocotyledonous and dicotyledonous test plants are grown in standard soil in plastic pots and at the 4- to 6-leaf stage are sprayed with an aqueous suspension of the test compounds of formula I prepared from a 25% wettable powder (Example F3, b) according to WO 97/34485) or with an emulsion of the test compounds of formula I prepared from a 25% emulsifiable concentrate (Example F1, c) according to WO 97/34485), in a concentration corresponding to 125 g or 250 g of active ingredient/ha (500 liters of water/ha). The test plants are then grown on in a greenhouse under optimum conditions. After a test duration of about 18 days, the test is evaluated in accordance with a scale of ten ratings (10=total damage, 0=no action). Ratings of from 10 to 6 (especially from 10 to 7) indicate good to very good herbicidal action.

For assay [8], the system named is Chenopodium. In words: Post-emergence herbicidal action (Example B2). To be noted: 250 gr/ha, sprayed at 4- to 6-leaf stage, evaluated after about 18 days; scale 10=total damage, 0=no action. The procedure: as §2
Assay [9] has as its system Ipomea. In words: Post-emergence herbicidal action (Example B2). As to conditions: 250 gr/ha, sprayed at 4- to 6-leaf stage, evaluated after about 18 days; scale 10=total damage, 0=no action. The procedure: as §2
The subject of assay [10] is Stellaria. The experiment in a line: Post-emergence herbicidal action (Example B2). To be noted: 250 gr/ha, sprayed at 4- to 6-leaf stage, evaluated after about 18 days; scale 10=total damage, 0=no action. The protocol:
as §2

Assay [11] deals with Brachiaria. In words: Comparison test with prior art compound, post-emergence herbicidal action (Example B3). To be noted: 15 gr/ha, rating scale 10=total damage, 0=no action. The protocol:
(§3) […] The test plants are then grown on in a greenhouse under optimum conditions. After a test duration of about 18 days, the test is evaluated in accordance with a scale of ten ratings (10=total damage, 0=no action). Ratings of from 10 to 6 (especially from 10 to 7) indicate good to very good herbicidal action. […] Examples of the good herbicidal action of the compounds are given in Table B2: The post-emergence herbicidal action of compound No. 1.0411 according to the invention is compared with compound “A” from WO 01/94339:

The test system of assay [12] is Galium. The assay is described as above. As to conditions: 15 gr/ha, rating scale 10=total damage, 0=no action. The procedure: as §3
The subject of assay [13] is Polygonum. The assay is described as above. As to conditions: 15 gr/ha, rating scale 10=total damage, 0=no action. The protocol:
as §3

Assay [14] concerns Rottboelia. Described as above. To be noted: 15 gr/ha, rating scale 10=total damage, 0=no action. The procedure: as §3
Assay [15] has as its system Sida. Described as above. As to conditions: 15 gr/ha, rating scale 10=total damage, 0=no action. The procedure: as §3
Assay [16] has as its system Sinapis. The assay is described as above. As to conditions: 15 gr/ha, rating scale 10=total damage, 0=no action. The protocol: as §3
For assay [17], the system named is weeds. In words: Comparison test post-emergence (Example B3), overall. To be noted: rate of application of 15 g/ha. From the text: This enhanced action was not to be expected in view of the structural similarity of the compounds.

`COCCOCc1nc(C(F)(F)F)ccc1C(=O)C1=C(O)C2(C)C=CC(C)(O2)C1=O` (stereo not shown) [1.0301]: the “Pre-emergence herbicidal action: Abutilon” value in assay [1] is reported as 7. Also, the “Pre-emergence herbicidal action: Amaranthus” value in assay [2] was found to be 8. For the same compound, the “Pre-emergence herbicidal action: Chenopodium” value in assay [3] was 9. In addition, in assay [4], the “Pre-emergence herbicidal action: Echinochloa” value was found to be 7. Besides, the “Pre-emergence herbicidal action: Kochia” value in assay [5] came to 8. Also, in assay [6], the “Pre-emergence herbicidal action: Panicum” value stood at 7. Besides, the “Post-emergence herbicidal action: Amaranthus” value in assay [7] came to 8. The “Post-emergence herbicidal action: Chenopodium” value in assay [8] was 8. Moreover, the “Post-emergence herbicidal action: Ipomea” value in [9] worked out at 8. Besides, the “Post-emergence herbicidal action: Stellaria” value in assay [10] is listed as 8.

In the case of `COCCOCc1nc(C(F)(F)F)ccc1C(=O)C1=C(O)C2C=CC(C2)C1=O` (stereo not shown) [1.0411], in assay [1], the “Pre-emergence herbicidal action: Abutilon” value was found to be 10. Also, the “Pre-emergence herbicidal action: Amaranthus” value in assay [2] came to 10. In addition, the “Pre-emergence herbicidal action: Chenopodium” value in assay [3] turned out to be 10. For the same compound, the “Pre-emergence herbicidal action: Echinochloa” value in [4] was found to be 9. Also, in assay [5], the “Pre-emergence herbicidal action: Kochia” value is 10. The “Pre-emergence herbicidal action: Panicum” value in assay [6] was 10. Besides, the “Post-emergence herbicidal action: Amaranthus” value in assay [7] was 9. Besides, the “Post-emergence herbicidal action: Chenopodium” value in assay [8] turned out to be 10. For the same compound, the “Post-emergence herbicidal action: Ipomea” value in assay [9] stood at 10. For the same compound, in [10], the “Post-emergence herbicidal action: Stellaria” value turned out to be 9. The “Post-emergence action: Brachiaria” value in [11] is given as 10. Further, the “Post-emergence action: Galium” value in assay [12] is given as 6. Also, in assay [13], the “Post-emergence action: Polygonum” value worked out at 8. Besides, in assay [14], the “Post-emergence action: Rottboelia” value amounted to 3. Also, the “Post-emergence action: Sida” value in assay [15] is on record as 8. Also, the “Post-emergence action: Sinapis” value in [16] is 8. Further, in [17], the “herbicidal action on the weeds compared with compound A (in words)” value is recorded as “considerably better herbicidal action”.

For the compound `Cc1nc(C(F)(F)F)ccc1C(=O)C1=C(O)C2C=CC(C1=O)C21CC1` (stereo not shown) [1.1153], the “Post-emergence herbicidal action: Amaranthus” value in assay [7] is on record as 7. The “Post-emergence herbicidal action: Chenopodium” value in assay [8] came to 8. For the same compound, the “Post-emergence herbicidal action: Ipomea” value in assay [9] was 8. Moreover, in [10], the “Post-emergence herbicidal action: Stellaria” value was found to be 10.

In the case of `COCCOCc1nc(C(F)(F)F)ccc1C(=O)C1C(=O)C2CCC(C2)C1=O` (stereo not shown) [A, reference compound], in [11], the “Post-emergence action: Brachiaria” value was 4. In assay [12], the “Post-emergence action: Galium” value is given as 5. Further, in assay [13], the “Post-emergence action: Polygonum” value turned out to be 5. For the same compound, in assay [14], the “Post-emergence action: Rottboelia” value was 0. Besides, the “Post-emergence action: Sida” value in [15] worked out at 7. Also, the “Post-emergence action: Sinapis” value in assay [16] came to 6.
